Here are results for three molecules from patent publication US12285498B2, “Pharmaceutical composition with nanoparticle-based drug delivery combined with non-invasive radiographic monitoring model” (NANOMEDTRIX, LLC, priority 2023, dated 2025).

Series [1] can be described thus: in vivo. From the text: Blood, urine, and stools were collected to evaluate renal and gastro-intestinal clearance of nanomaterials. Sequential and simultaneous administration of one material and before the start of another to allow full clearance.
Both strains were obtained from Inotiv (Indianapolis, IN, USA). F344 rats were instilled with rat AY27 bladder cancer cells and athymic nude rats were instilled with human male bladder cancer strains: T24 and UMUC-3. […] In these rats, blood/urine were collected, but spared from PK/PD studies to avoid confounding results. In this cohort, rats (n=3) were instilled with tumors and treated with sequential intravesical and oral drug-MSN 3-drugs load and body fluids (blood/urine) collection at the same prescribed time points. An example: four rounds of treatment were administered fluid collected n=3 samples at each time point.

The nature of series [2]: in vivo. The source says: The following discusses oral administration and detection of the drug delivered orally. There is a need for oral drug delivery, i.e., it facilitates self-medication, storage, and reduced burden on the clinician, allowing for remote monitoring.
This is another data set of the same source.

Series [3] can be described thus: PK, intravenous administration of drug alone (current study). It counts as in vivo, rat. To be noted: for Cmax: 3 mg/kg DOC, 12 mg/kg GEM, 6 mg/kg MMC; for AUC: read-out: AUC (Plasma Curves). The procedure: Adult female rats are 250-300 g in body weight, or 10-15 times larger than adult C57-BI6 mice. The volume of an aqueous solution given by oral gavage procedure can be up to 5 mL/kg, thus for a 300 g rat, 1.5 mL volume is achievable (Turner, J Am Assoc Lab Anim Sci. 51(1): 25-30.). This permits a mass of 150 mg MSN, or the equivalent dose of free drug. The recommended volume of a tail vein injection is also 5 mL/kg, thus 150 mg MSN or equivalent drug can be administered by i.v. as well (https://research.unc.edu/files/2020/12/rat-handling-and-techniques.pdf).
We compared the one or 2 drugs to experiment carried out intravenous/systemic and/or intravesicular drug alone.

For series [4] the following is noted: intravenous, cited from earlier work.
For series [5] the following is noted: known value; cited from earlier work.
The conditions of series [6]: rat, in vivo.
For series [7] the following is noted: intravenous, cited from earlier work. This is another data set of the same source.
For series [8] the following is noted: oral, 50 mg/kg; cited from earlier work.
The conditions of series [9]: intravenous, cited from earlier work. This is another data set of the same source.
The nature of series [10]: Comparison of AUC for drug-MSN versus drug administered alone (FIG. 7). To be noted: rat, in vivo.
The mark [11] stands for this setting: female, rat, in vivo, Cmax in stools.
The mark [12] stands for this setting: female, rat, in vivo, initial concentration (Cmax) in urine.
Where [13] appears, read: female, rat, in vivo, po, 3 mg/kg.
[14] abbreviates: female, rat, in vivo, po, Cmax in stool.
[15] abbreviates: female, rat, in vivo, po, Cmax in urine.
The mark [16] stands for this setting: female, rat, plasma, read-out: Cmax.
[17] abbreviates: female, rat, in vivo, po, 12 mg/kg.

As a reminder, the Cmax is the peak of the concentration-time curve. By AUC is commonly meant concentration integrated over time.

Read-outs that look alike come from different tables or passages of the source.

With `CC(=O)O[C@@]12CO[C@@H]1C[C@H](O)[C@@]1(C)C(=O)[C@H](O)C3=C(C)[C@@H](OC(=O)[C@H](O)[C@@H](NC(=O)OC(C)(C)C)c4ccccc4)C[C@@](O)([C@@H](OC(=O)c4ccccc4)[C@H]21)C3(C)C` [Docetaxel], the Cmax in “in vivo [1]” (setting [11]) was 9.44 ng/mL; in “in vivo [1]” (setting [12]), 16600 ng/mL; in “in vivo [2]” (setting [14]), 352 ng/mL; in the series “in vivo [2]” (setting [15]), 413 ng/mL; in [3] (setting [16]), 116 ng/mL; in series [4] (2 mg/kg) it was 68 ± 10 ng/mL. Besides, the peak concentration (Cmax) was 7000 ng/mL in [4] (5 mg/kg) and 950 ng/mL in series [4] (8 mg/kg). Moreover, the detection in plasma entry in the series “in vivo [1]” (rat, in vivo) is reported as “below the detection threshold”. In addition, in the series “in vivo [1]” (rat, in vivo), the “time of Cmax in stools” value was 24 h. For the same molecule, the AUC came to 0.0133 µg·h/mL in “in vivo [2]” (setting [13]) and 0.016 µg·h/mL in series [3] (female, rat, plasma, 3 mg/kg). For the same molecule, the Clearance in the series “in vivo [2]” (setting [13]) is 45.11 L/h; in series [3] (female, rat, plasma, 3 mg/kg), 624 mL/min. Further, the tmax in the series “in vivo [2]” (setting [13]) amounted to 60 min; in [3] (female, rat, plasma, 3 mg/kg, read-out: tmax), 15 min. For the same molecule, in the series “in vivo [2]” (rat, in vivo, po), the “time of Cmax in stool” value came out at 6 h. Also, the figures for the “AUC (Plasma Curves)” value in series [4] (2 mg/kg), in [4] (5 mg/kg) and in series [4] (8 mg/kg) were 0.277 µg·h/mL, 16367.39 µg·h/mL and 2.2 ± 0.3 µg·h/mL, respectively. Also, in series [5], the oral bioavailability was 10%.
On to `Nc1ccn([C@@H]2O[C@H](CO)[C@@H](O)C2(F)F)c(=O)n1` [Gemcitabine], for which, in the series “in vivo [1]” (female, rat, in vivo), the “plasma Cmax as % of Cmax for urine” value is recorded as about 1%. In addition, the AUC in “in vivo [1]” (female, rat, in vivo, 12 mg/kg) came out at 0.28 µg·h/mL; in the series “in vivo [2]” (setting [17]), 1.14 µg·h/mL; in [3] (female, rat, plasma, 12 mg/kg) it was 2.3 µg·h/mL. The Clearance is 143 mL/min in “in vivo [1]” (female, rat, in vivo, 12 mg/kg); 2.109 L/h in “in vivo [2]” (setting [17]); 17.4 mL/min in series [3] (female, rat, plasma, 12 mg/kg); 393.29 L/h/m^2 in [7] (15 mg/kg); 89.46 L/h/m^2 in series [7] (20 mg/kg); 29.56 L/h/m^2 in series [7] (50 mg/kg). The tmax in the series “in vivo [1]” (female, rat, in vivo, 12 mg/kg) is 15 min; in “in vivo [2]” (setting [17]) it was 30 min; in series [3] (female, rat, plasma, 12 mg/kg, read-out: tmax), 15 min; in [7] (15-20 mg/kg) it was 4.98 min; in series [8], 90 ± 54 min. Further, the Cmax in “in vivo [1]” (setting [11]) was 2.23 ng/mL; in the series “in vivo [1]” (setting [12]), 55600 ng/mL; in the series “in vivo [2]” (setting [14]), 26.1 ng/mL; in “in vivo [2]” (setting [15]) it was 4740 ng/mL; in [3] (setting [16]), 1790 ng/mL; in series [8], 1181.17 ± 47.1 ng/mL. For the same molecule, the “time of Cmax in plasma” value in “in vivo [1]” (rat, in vivo) was at most 15 min. Moreover, the “time of Cmax in stools” value in “in vivo [1]” (rat, in vivo) is given as 24 h. Moreover, the “time of Cmax in stool” value in the series “in vivo [2]” (rat, in vivo, po) is recorded as 6 h. Moreover, the “AUC, drug alone compared with drug-loaded MSN” value in series [6] is on record as “higher for drug alone”. Further, the “AUC (Plasma Curves)” value in series [7] (15 mg/kg) is 22.69 ± 4.14 µg·h/mL; in [7] (20 mg/kg), 133 ± 20 µg·h/mL; in series [7] (50 mg/kg), 5031.61 ± 927.4 µg·h/mL; in [8], 16132.95 ± 5128.0 µg·h/mL. Moreover, the oral bioavailability in series [5] is recorded as 10%.
Regarding `CO[C@@]12[C@H](COC(N)=O)C3=C(C(=O)C(C)=C(N)C3=O)N1C[C@@H]1N[C@@H]12` [Mitomycin C, Mitomycin c], the Cmax in the series “in vivo [1]” (drug alone, intravesical, 3 mg/kg DOC, 12 mg/kg GEM, 6 mg/kg MMC, plasma) is 32.19 ng/mL; in [3] (plasma) it was 39.5 ng/mL; in series [9] (4 mg/kg), 800 ng/mL; in [9] (5 mg/kg), 12800 ± 400 ng/mL. Further, the tmax in “in vivo [1]” (drug alone, intravesical, plasma) is 15 min; in the series “in vivo [2]” (drug alone, oral, plasma), 30 min; in series [3], 15 min; in [9] (4 mg/kg), 15 min; in series [9] (5 mg/kg), 4.98 min. The molecule further had a Cmax in stools in “in vivo [1]” (intravesical administration, stools) of 94.22 ng/mL. Besides, in the series “in vivo [1]” (intravesical administration, urine, 15 minutes following administration), the “initial concentration (Cmax) in urine” value was 29498.07 ng/mL. This molecule gave a Cmax in stool in the series “in vivo [2]” (oral administration, stool) of 157.09 ng/mL. In the series “in vivo [2]” (oral administration, urine), this molecule showed a Cmax in urine of 16135.89 ng/mL. Also, the “AUC, drug alone compared with drug-loaded MSN” value in [10] is listed as “higher for drug alone”.
